Numbers after ± are expanded uncertainties.
Assay: xn = mol fraction of the nth substance listed
Conditions: 298.15 K, 101 kPa, Liquid; for speed of sound: Linear variable-path acoustic interferometer; for mass density: Vibrating tube method

C1CCOC1 [tetrahydrofuran] + Clc1cccc(Cl)c1
x1 = 1
Conditions | mass density [kg/m3] | speed of sound [m/s]
– | 882.09 ± 0.71 | 1270 ± 3

Cc1ccc(Cl)cc1 [4-chlorotoluene] + C1CCOC1
Conditions | mass density [kg/m3] | speed of sound [m/s]
x2 = 0 | 1064.21 ± 0.97 | 1296 ± 3
x2 = 0.0653 | 1054.92 ± 0.96 | 1305 ± 3
x2 = 0.168 | 1040.16 ± 0.93 | 1308 ± 3
x2 = 0.3251 | 1015.77 ± 0.89 | 1308 ± 3
x2 = 0.4558 | 994.13 ± 0.85 | 1304 ± 3
x2 = 0.5489 | 977.7 ± 0.83 | 1301 ± 3
x2 = 0.6335 | 962.01 ± 0.82 | 1296 ± 3
x2 = 0.7021 | 948.73 ± 0.8 | 1293 ± 3
x2 = 0.7609 | 936.9 ± 0.79 | 1288 ± 3
x2 = 0.8226 | 923.96 ± 0.78 | 1284 ± 3
x2 = 0.906 | 905.08 ± 0.77 | 1280 ± 3
x2 = 0.941 | 896.99 ± 0.76 | 1277 ± 3

C1CCOC1 [tetrahydrofuran] + Cc1ccccc1[N+](=O)[O-]
x1 = 1
Conditions | mass density [kg/m3] | speed of sound [m/s]
– | 882.09 ± 0.71 | 1270 ± 3

Cc1ccccc1[N+](=O)[O-] [2-nitrotoluene] + C1CCOC1
Conditions | mass density [kg/m3] | speed of sound [m/s]
x2 = 0 | 1155.24 ± 1.2 | 2112 ± 3
x2 = 0.1021 | 1135.24 ± 1.1 | 2120 ± 3
x2 = 0.2146 | 1111.7 ± 1.1 | 2034 ± 3
x2 = 0.3019 | 1092.19 ± 1.1 | 1939 ± 3
x2 = 0.4211 | 1063.58 ± 1 | 1791 ± 3
x2 = 0.4509 | 1056.04 ± 0.99 | 1754 ± 3
x2 = 0.521 | 1037.67 ± 0.96 | 1677 ± 3
x2 = 0.6045 | 1014.59 ± 0.92 | 1593 ± 3
x2 = 0.7211 | 979.81 ± 0.87 | 1495 ± 3
x2 = 0.8014 | 953.93 ± 0.86 | 1433 ± 3
x2 = 0.9324 | 907.94 ± 0.82 | 1325 ± 3

C1CCOC1 [tetrahydrofuran] + Cc1cccc(Cl)c1
x1 = 1
Conditions | mass density [kg/m3] | speed of sound [m/s]
– | 882.09 ± 0.71 | 1270 ± 3

C1CCOC1 [tetrahydrofuran] + Cc1ccc(Cl)cc1
x1 = 1
Conditions | mass density [kg/m3] | speed of sound [m/s]
– | 882.09 ± 0.71 | 1270 ± 3

Cc1cccc(Cl)c1 [3-chlorotoluene] + C1CCOC1
Conditions | mass density [kg/m3] | speed of sound [m/s]
x2 = 0 | 1066.01 ± 0.98 | 1279 ± 3
x2 = 0.0662 | 1055.82 ± 0.97 | 1293 ± 3
x2 = 0.1944 | 1036.15 ± 0.93 | 1313 ± 3
x2 = 0.2787 | 1022.98 ± 0.9 | 1319 ± 3
x2 = 0.3891 | 1004.96 ± 0.87 | 1324 ± 3
x2 = 0.5228 | 981.71 ± 0.84 | 1325 ± 3
x2 = 0.6399 | 960.03 ± 0.82 | 1320 ± 3
x2 = 0.7368 | 941.06 ± 0.8 | 1313 ± 3
x2 = 0.7972 | 928.35 ± 0.79 | 1307 ± 3
x2 = 0.8601 | 914.63 ± 0.77 | 1300 ± 3
x2 = 0.9208 | 900.75 ± 0.76 | 1290 ± 3
x2 = 0.945 | 895.28 ± 0.76 | 1287 ± 3
x2 = 0.9739 | 888.4 ± 0.75 | 1282 ± 3

Cc1cccc([N+](=O)[O-])c1 [3-nitrotoluene] + C1CCOC1
Conditions | mass density [kg/m3] | speed of sound [m/s]
x2 = 0 | 1149.67 ± 1.2 | 2100 ± 3
x2 = 0.0914 | 1132.22 ± 1.1 | 2093 ± 3
x2 = 0.1522 | 1120.11 ± 1.1 | 2029 ± 3
x2 = 0.2026 | 1109.64 ± 1.1 | 1969 ± 3
x2 = 0.3146 | 1085.13 ± 1 | 1847 ± 3
x2 = 0.4209 | 1060.02 ± 0.99 | 1719 ± 3
x2 = 0.5476 | 1027.61 ± 0.93 | 1588 ± 3
x2 = 0.6024 | 1012.66 ± 0.91 | 1542 ± 3
x2 = 0.7519 | 968.47 ± 0.86 | 1438 ± 3
x2 = 0.8415 | 939.33 ± 0.84 | 1380 ± 3
x2 = 0.9324 | 907.47 ± 0.82 | 1321 ± 3

Clc1ccccc1Cl [1,2-dichlorobenzene] + C1CCOC1
Conditions | mass density [kg/m3] | speed of sound [m/s]
x2 = 0 | 1300.35 ± 1.5 | 1269 ± 3
x2 = 0.0327 | 1288.55 ± 1.5 | 1274 ± 3
x2 = 0.155 | 1244.23 ± 1.4 | 1290 ± 3
x2 = 0.3046 | 1189.35 ± 1.3 | 1305 ± 3
x2 = 0.4457 | 1135.03 ± 1.2 | 1307 ± 3
x2 = 0.5709 | 1084.3 ± 1.1 | 1304 ± 3
x2 = 0.6161 | 1065.67 ± 1.1 | 1299 ± 3
x2 = 0.6885 | 1034.31 ± 1 | 1295 ± 3
x2 = 0.7973 | 984.99 ± 0.94 | 1283 ± 3
x2 = 0.8425 | 963.65 ± 0.93 | 1278 ± 3
x2 = 0.8852 | 942.63 ± 0.92 | 1274 ± 3
x2 = 0.9451 | 911.72 ± 0.91 | 1272 ± 3

Clc1ccc(Cl)c(Cl)c1 [1,2,4-trichlorobenzene] + C1CCOC1
Conditions | mass density [kg/m3] | speed of sound [m/s]
x2 = 0 | 1447.66 ± 1.9 | 1272 ± 3
x2 = 0.0358 | 1431.9 ± 1.9 | 1303 ± 3
x2 = 0.1451 | 1382.41 ± 1.8 | 1326 ± 3
x2 = 0.2456 | 1334.05 ± 1.7 | 1346 ± 3
x2 = 0.3483 | 1282.95 ± 1.6 | 1355 ± 3
x2 = 0.4617 | 1224.12 ± 1.4 | 1352 ± 3
x2 = 0.6012 | 1147.15 ± 1.3 | 1339 ± 3
x2 = 0.7076 | 1083.62 ± 1.2 | 1327 ± 3
x2 = 0.7639 | 1048.78 ± 1.1 | 1320 ± 3
x2 = 0.8162 | 1014.57 ± 1.1 | 1313 ± 3
x2 = 0.8743 | 975.21 ± 1.1 | 1305 ± 3
x2 = 0.9351 | 931.35 ± 1.1 | 1300 ± 3
x2 = 0.9642 | 909.82 ± 1.1 | 1298 ± 3

C1CCOC1 [tetrahydrofuran] + Cc1ccccc1Cl
x1 = 1
Conditions | mass density [kg/m3] | speed of sound [m/s]
– | 882.09 ± 0.71 | 1270 ± 3

C1CCOC1 [tetrahydrofuran] + Clc1ccccc1Cl
x1 = 1
Conditions | mass density [kg/m3] | speed of sound [m/s]
– | 882.09 ± 0.71 | 1270 ± 3

C1CCOC1 [tetrahydrofuran] + Cc1cccc([N+](=O)[O-])c1
x1 = 1
Conditions | mass density [kg/m3] | speed of sound [m/s]
– | 882.09 ± 0.71 | 1270 ± 3

Cc1ccccc1Cl [2-chlorotoluene] + C1CCOC1
Conditions | mass density [kg/m3] | speed of sound [m/s]
x2 = 0 | 1077.63 ± 1 | 1295 ± 3
x2 = 0.1234 | 1057.75 ± 0.97 | 1324 ± 3
x2 = 0.264 | 1034.49 ± 0.93 | 1345 ± 3
x2 = 0.3444 | 1020.53 ± 0.9 | 1347 ± 3
x2 = 0.4669 | 998.27 ± 0.86 | 1348 ± 3
x2 = 0.5809 | 976.32 ± 0.84 | 1343 ± 3
x2 = 0.7119 | 949.73 ± 0.81 | 1331 ± 3
x2 = 0.7706 | 937.14 ± 0.8 | 1326 ± 3
x2 = 0.8264 | 924.69 ± 0.79 | 1318 ± 3
x2 = 0.8858 | 910.9 ± 0.78 | 1310 ± 3
x2 = 0.9564 | 893.59 ± 0.76 | 1298 ± 3

Clc1cccc(Cl)c1 [1,3-dichlorobenzene] + C1CCOC1
Conditions | mass density [kg/m3] | speed of sound [m/s]
x2 = 0 | 1282.82 ± 1.5 | 1257 ± 2
x2 = 0.0332 | 1272.22 ± 1.5 | 1259 ± 3
x2 = 0.1432 | 1234.54 ± 1.4 | 1272 ± 3
x2 = 0.272 | 1189.62 ± 1.3 | 1276 ± 3
x2 = 0.3809 | 1150.84 ± 1.2 | 1277 ± 3
x2 = 0.5198 | 1099.15 ± 1.1 | 1276 ± 3
x2 = 0.6244 | 1057.78 ± 1 | 1275 ± 3
x2 = 0.696 | 1027.92 ± 1 | 1274 ± 3
x2 = 0.8044 | 980.28 ± 0.93 | 1270 ± 3
x2 = 0.845 | 961.47 ± 0.93 | 1265 ± 3
x2 = 0.8852 | 941.79 ± 0.92 | 1265 ± 3
x2 = 0.942 | 912.92 ± 0.9 | 1266 ± 3

C1CCOC1 [tetrahydrofuran] + Clc1ccc(Cl)c(Cl)c1
x1 = 1
Conditions | mass density [kg/m3] | speed of sound [m/s]
– | 882.09 ± 0.71 | 1270 ± 3
